In patent US20090069320A1, “Substituted 4-Amino-Quinazoline Compounds with Metabotropic Glutamate Receptor Regulating Activity and Uses Thereof” (Gruenenthal GmbH, priority 2006, published 2009):
Where a name gives a salt, the structure may show the parent alone. Read-outs that look alike come from different tables or passages of the source.

Target: T1, mGluR5 receptor (Sus scrofa, UniProt I3LUI7)
T1 construct: 450 μg of protein from brain homogenate with 5 nM ^3[H]-MPEP; from tissue; host or cells: pig brain halves without medulla, cerebellum and pons
T1 sequence (I3LUI7 19-1212): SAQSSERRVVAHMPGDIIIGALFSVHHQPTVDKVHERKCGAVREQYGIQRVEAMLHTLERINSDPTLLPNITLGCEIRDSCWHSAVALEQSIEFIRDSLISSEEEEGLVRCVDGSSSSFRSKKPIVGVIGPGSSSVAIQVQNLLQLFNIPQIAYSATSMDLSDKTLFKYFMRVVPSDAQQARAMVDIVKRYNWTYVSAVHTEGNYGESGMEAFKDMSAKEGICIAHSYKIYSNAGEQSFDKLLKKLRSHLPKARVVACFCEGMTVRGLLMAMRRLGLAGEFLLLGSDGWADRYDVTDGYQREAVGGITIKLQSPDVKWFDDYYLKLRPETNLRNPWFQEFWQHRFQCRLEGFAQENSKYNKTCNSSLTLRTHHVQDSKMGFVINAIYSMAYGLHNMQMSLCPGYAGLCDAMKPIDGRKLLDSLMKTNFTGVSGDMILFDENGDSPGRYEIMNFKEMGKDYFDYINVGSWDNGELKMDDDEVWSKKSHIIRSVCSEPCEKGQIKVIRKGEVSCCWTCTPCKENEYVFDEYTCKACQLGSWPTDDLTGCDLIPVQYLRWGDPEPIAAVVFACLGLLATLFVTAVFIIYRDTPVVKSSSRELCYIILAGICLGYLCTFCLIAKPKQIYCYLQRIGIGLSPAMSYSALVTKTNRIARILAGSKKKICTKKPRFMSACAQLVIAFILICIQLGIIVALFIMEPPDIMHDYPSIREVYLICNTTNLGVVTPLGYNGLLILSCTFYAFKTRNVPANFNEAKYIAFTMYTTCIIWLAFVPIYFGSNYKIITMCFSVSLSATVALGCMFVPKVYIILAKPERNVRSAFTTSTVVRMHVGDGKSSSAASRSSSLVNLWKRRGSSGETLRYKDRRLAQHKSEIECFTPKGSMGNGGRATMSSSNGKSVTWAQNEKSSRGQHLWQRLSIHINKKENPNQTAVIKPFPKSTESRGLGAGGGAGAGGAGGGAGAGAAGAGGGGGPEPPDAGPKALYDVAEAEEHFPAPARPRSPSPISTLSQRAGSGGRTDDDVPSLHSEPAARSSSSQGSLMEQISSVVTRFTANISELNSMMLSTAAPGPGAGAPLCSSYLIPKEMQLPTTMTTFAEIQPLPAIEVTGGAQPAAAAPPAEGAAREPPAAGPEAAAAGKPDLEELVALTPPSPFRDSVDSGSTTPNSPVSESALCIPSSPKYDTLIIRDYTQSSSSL
Assay: [3H]-MPEP mGluR5 receptor binding assay (pig brain homogenate)
Conditions: 5 nM [3H]-MPEP; for inhibition at 10 µM: read-out: % Inhibition of mGluR5 Receptor (pig) [^3H]-MPEP Bond at 10 μM
Protocol: I. Method for Determining the Inhibition of the [^3H]-MPEP Bond in the mGluR5 Receptor Binding Assay
Pig brain homogenate is produced by homogenizing (Polytron PT 3000, Kinematica AG, 10 000 rpm for 90 seconds) pig brain halves without medulla, cerebellum and pons in pH 8.0 buffer (20 mM Hepes, Sigma, order no. H3375+1 complete tablet, 100 ml, Roche Diagnostics, order no. 1836145) in the ratio of 1:20 (brain weight/volume) and differential centrifuging at 900×g and 40 000×g. In incubation batches of 250 μl in 96-well microtitre plates 450 μg of protein from brain homogenate with 5 nM ^3[H]-MPEP (Tocris, order no. R1212) (MPEP=[…]) and the compounds to be examined (10 μM in test) in buffer (as above) are respectively incubated at room temperature for 60 minutes.
The batches are then filtered using a Brandel cell harvester (Brandel, Robotic 9600) on unifilter plates with fibreglass filter mats (Perkin Elmer, order no. 6005177) and then washed with buffer (as above) 3-times each with 250 μl per sample. The filter plates are then dried for 60 mins. at 55° C. Then, 30 μL of Ultima Gold™ scintillator (Packard BioScience, order no. 6013159) are added per well and after 3 hours the samples are measured on the β-counter (MicroBeta, Perkin Elmer). The non-specific binding is determined by adding 10 μM of MPEP (Tocris, order no. 1212).

[1] = read-out: IC50 mGluR5 Receptor (pig) [^3H]-MPEP Bond

inhibition at 10 µM (10 μM compound) [%] | IC50 [1] [nM] | Compound | further results
76 | – | N#Cc1cccc(C(=O)N(Cc2cccc(-c3ccc4ncnc(NC5CC5)c4c3)c2)C2CC2)c1 [Example 176, 3-cyano-N-cyclopropyl-N-[3-(4-cyclopropylamino-quinazolin-6-yl)-benzyl]-benzamide] | –
97 | – | O=C(c1ccc(C(F)(F)F)cc1F)N(Cc1cccc(-c2ccc3ncnc(NC4CC4)c3c2)c1)C1CC1 [Example 177, N-cyclopropyl-N-[3-(4-cyclopropylamino-quinazolin-6-yl)-benzyl]-2-fluoro-4-trifluoromethyl-benzamide] | –
89 | – | O=C(c1ccc(Cl)nc1)N(Cc1cccc(-c2ccc3ncnc(NC4CC4)c3c2)c1)C1CC1 [Example 179, 6-chloro-N-cyclopropyl-N-[3-(4-cyclopropylamino-quinazolin-6-yl)-benzyl]-nicotinamide] | –
– | 210 | O=C1COCC(=O)N1Cc1cc(-c2ccc3ncnc(NC4CC4)c3c2)ccc1F [Example 189, 4-(5-(4-(cyclopropylamino)quinazolin-6-yl)-2-fluorobenzyl)morpholine-3,5-dione] | –
– | 670 | CC(=O)N(Cc1cccc(-c2ccc3ncnc(NC4CC4)c3c2)c1F)C1CC1 [Example 191, N-cyclopropyl-N-(3-(4-(cyclopropylamino)quinazolin-6-yl)-2-fluorobenzyl)acetamide] | –
– | 270 | O=C1CCC(=O)N1Cc1cc(-c2ccc3ncnc(NC4CC4)c3c2)ccc1F [Example 193, 1-(5-(4-(cyclopropylamino)quinazolin-6-yl)-2-fluorobenzyl)pyrrolidine-2,5-dione] | –
40 | – | CC(=O)N(CC#N)Cc1cccc(-c2ccc3ncnc(NC4CC4)c3c2)c1 [Example 200, N-cyanomethyl-N-[3-(4-cyclopropylamino-quinazolin-6-yl)-benzyl]-acetamide] | –
39 | – | CC(=O)OCN(Cc1cccc(-c2ccc3ncnc(NC4CC4)c3c2)c1)C(C)=O [Example 203, {acetyl-[3-(4-cyclopropylamino-quinazolin-6-yl)-benzyl]-amino}-methyl acetate] | –
45 | – | CC(=O)N(Cc1ccccc1)Cc1cccc(-c2ccc3ncnc(NC4CC4)c3c2)c1 [Example 219, N-benzyl-N-[3-(4-cyclopropylamino-quinazolin-6-yl)-benzyl]-acetamide; hydrochloride] | –
– | 4250 | O=C1CCC(c2ccccc2)C(=O)N1Cc1cccc(-c2ccc3ncnc(NC4CC4)c3c2)c1 (centres unmarked) [Example 220, 1-[3-(4-cyclopropylamino-quinazolin-6-yl)-benzyl]-3-phenyl-piperidine-2,6-dione; hydrochloride] | –
– | 4610 | CS(=O)(=O)N(Cc1ccccc1)Cc1cccc(-c2ccc3ncnc(NC4CC4)c3c2)c1 [Example 222, N-benzyl-N-(3-(4-(cyclopropylamino)quinazolin-6-yl)benzyl)methane sulfonamide] | –

Second part, the molecule before the results:

Compound | inhibition at 10 µM (10 μM compound) [%] | IC50 [1] [nM] | further results
O=C(Cc1ccccn1)N(Cc1cccc(-c2ccc3ncnc(NC4CC4)c3c2)c1)C1CC1 [Example 174, N-cyclopropyl-N-[3-(4-cyclopropylamino-quinazolin-6-yl)-benzyl]-2-pyridin-2-yl-acetamide] | 97 | – | –
Cc1ccc(C(=O)N(C)Cc2cccc(-c3ccc4ncnc(NC5CC5)c4c3)c2)cc1 [Example 175, N-[3-(4-cyclopropylamino-quinazolin-6-yl)-benzyl]-4,N-dimethyl-benzamide] | 85 | – | –
O=C(c1cccs1)N(Cc1cccc(-c2ccc3ncnc(NC4CC4)c3c2)c1)C1CC1 [Example 178, thiophene-2-carboxylic acid cyclopropyl-[3-(4-cyclopropylamino-quinazolin-6-yl)-benzyl]-amide] | 84 | – | –
COC(=O)CN(Cc1cccc(-c2ccc3ncnc(NC4CC4)c3c2)c1)C(=O)CC#N [Example 190, methyl 2-(2-cyano-N-(3-(4-(cyclopropylamino)quinazolin-6-yl)benzyl)acetamido)acetate] | 58 | – | –
O=C1C=CC(=O)N1Cc1cc(-c2ccc3ncnc(NC4CC4)c3c2)ccc1F [Example 192, 1-(5-(4-(cyclopropylamino)quinazolin-6-yl)-2-fluorobenzyl)-1H-pyrrole-2,5-dione] | 41 | – | –
N#CCC(=O)N(Cc1cccc(-c2ccc3ncnc(NC4CC4)c3c2)c1)c1cccnc1 [Example 195, 2-cyano-N-[3-(4-cyclopropylamino-quinazolin-6-yl)-benzyl]-N-pyridin-3-yl-acetamide] | 40 | – | –
N#CCC(=O)N(Cc1cccc(-c2ccc3ncnc(NC4CC4)c3c2)c1F)C1CC1 [Example 197, 2-cyano-N-cyclopropyl-N-[3-(4-cyclopropylamino-quinazolin-6-yl)-2-fluoro-benzyl]-acetamide] | – | 660 | –
CNc1ncnc2ccc(-c3cccc(CN4C(=O)CCC4=O)c3)cc12 [Example 198, 1-[3-(4-methylamino-quinazolin-6-yl)-benzyl]-pyrrolidine-2,5-dione] | – | 5190 | –
O=C1CCC(=O)N1Cc1cccc(-c2ccc3ncnc(NCc4ccccc4)c3c2)c1 [Example 199, 1-(3-(4-(benzylamino)quinazolin-6-yl)benzyl)pyrrolidine-2,5-dione] | – | 1250 | –
O=C(CC(F)(F)F)N(Cc1cccc(-c2ccc3ncnc(NC4CC4)c3c2)c1)C1CC1 [Example 205, N-cyclopropyl-N-[3-(4-cyclopropylamino-quinazolin-6-yl)-benzyl]-3,3,3-trifluoro-propionamide; hydrochloride] | – | 330 | –
O=S1(=O)CCCN1Cc1cccc(-c2ccc3ncnc(NC4CC4)c3c2)c1 [Example 206, cyclopropyl-{6-[3-(1,1-dioxo-1λ^6-isothiazolidin-2-ylmethyl)-phenyl]-quinazoline-4-yl}-amine; hydrochloride] | 34 | – | –
CC(=O)N(Cc1cccc(-c2ccc3ncnc(NC4CC4)c3c2)c1)c1ccccc1 [Example 207, N-(3-(4-(cyclopropylamino)quinazolin-6-yl)benzyl)-N-phenylacetamide hydrochloride] | – | 7170 | –
O=C(CF)N(Cc1cccc(-c2ccc3ncnc(NC4CC4)c3c2)c1)C1CC1 [Example 208, N-cyclopropyl-N-[3-(4-cyclopropylamino-quinazolin-6-yl)-benzyl]-2-fluoro-acetamide] | – | – | IC50 (IC50 mGluR5 Receptor (pig) [^3H]-MPEP Bond): 120 nM
CC(=O)N(Cc1cccc(-c2ccc3ncnc(NC4CC4)c3c2)c1)C1CCCC1 [Example 209, N-cyclopentyl-N-(3-(4-(cyclopropylamino)quinazolin-6-yl)benzyl)acetamide] | 63 | – | –
CS(=O)(=O)N(Cc1cccc(-c2ccc3ncnc(NC4CC4)c3c2)c1)C1CCCC1 [Example 210, N-cyclopentyl-N-(3-(4-(cyclopropylamino)quinazolin-6-yl)benzyl)methane sulfonamide] | – | 6070 | –
O=C1COCC(=O)N1Cc1cccc(-c2ccc3ncnc(NC4CC4)c3c2)c1 [Example 212, 4-(3-(4-(cyclopropylamino)quinazolin-6-yl)benzyl)morpholine-3,5-dione] | – | 100 | –
COCCN(Cc1cccc(-c2ccc3ncnc(NC4CC4)c3c2)c1)C(C)=O [Example 213, N-(3-(4-(cyclopropylamino)quinazolin-6-yl)benzyl)-N-(2-methoxyethyl)acetamide] | 32 | – | –
CC(=O)N(CCc1ccccc1)Cc1cccc(-c2ccc3ncnc(NC4CC4)c3c2)c1 [Example 214, N-[3-(4-cyclopropylamino-quinazolin-6-yl)-benzyl]-N-phenethyl-acetamide] | – | 6920 | –
CS(=O)(=O)N(Cc1cccc(-c2ccc3ncnc(NC4CC4)c3c2)c1)Cc1ccco1 [Example 215, N-(3-(4-(cyclopropylamino)quinazolin-6-yl)benzyl)-N-(furan-2-yl-methyl)methane sulfonamide] | – | 3610 | –
CC(=O)N(Cc1cccc(-c2ccc3ncnc(NC4CC4)c3c2)c1)Cc1ccco1 [Example 216, N-[3-(4-cyclopropylamino-quinazolin-6-yl)-benzyl]-N-furan-2-yl-methyl-acetamide] | – | 1500 | –
O=C1CCCN1Cc1cccc(-c2ccc3ncnc(NC4CC4)c3c2)c1 [Example 217, 1-[3-(4-cyclopropylamino-quinazolin-6-yl)-benzyl]-pyrrolidine-2-one; hydrochloride] | – | 510 | –
CCCCN(Cc1cccc(-c2ccc3ncnc(NC4CC4)c3c2)c1)C(C)=O [Example 218, N-butyl-N-[3-(4-cyclopropylamino-quinazolin-6-yl)-benzyl]-acetamide; hydrochloride] | – | 2990 | –
CC(=O)N(C)Cc1cccc(-c2ccc3ncnc(NC4CC4)c3c2)c1 [Example 221, N-[3-(4-cyclopropylamino-quinazolin-6-yl)-benzyl]-N-methyl-acetamide] | – | 5360 | –
CN(Cc1cccc(-c2ccc3ncnc(NC4CC4)c3c2)c1)S(C)(=O)=O [Example 223, N-(3-(4-(cyclopropylamino)quinazolin-6-yl)benzyl)-N-methyl methane sulfonamide] | – | – | % Inhibition of mGluR5 Receptor (pig) [^3H]-MPEP Bond at 10 μM (10 μM compound): 51%
